The values below come from patent publication US4361511A, “Benzodiazepine derivatives” (Hoffmann-La Roche Inc., priority 1980, dated 1982).

A value given as a limit tells only on which side of the number the result lay.

Data set [1] concerns adrenalectomised rats treated with aldosterone. As to the kind of experiment: aldosterone-antagonistic activity in adrenalectomised rats (urine volume, sodium and potassium excretion over 3 hours). Format: in vivo, Female Holtzmann rats. Particulars: for (K+) potassium excretion in %, based on control animals / (Na+) sodium excretion in %, based on control animals / Volume (urine volume) in %, based on control animals: 1 mg/kg p.o., aldosterone 4 mmg/kg s.c. 30 min later, vs animals treated only with aldosterone, urine collected 3 h. How it is done:
If compounds of formula I are administered to the animals before the treatment with aldosterone, then there is observed, in comparison to animals treated only with aldosterone (control animals), a pronounced increase of the sodium excretion (i.e. the sodium retention caused by aldosterone is antagonised), whereas the potassium excretion and the urine volume are influenced to a lesser extent.
The standard experiment is carried out as follows:
Female Holtzmann rats (150-180 g) are bilaterally adrenalectomised 70 to 74 hours before the beginning of the experiment. After the operation, the animals receive a customary rat dry feed and 0.9 percent sodium chloride solution for drinking. 16 to 17 hours before the beginning of the experiment the feed is removed from the animals, but they can subsequently drink, as before, 0.9 percent sodium chloride solution ad libitum. At the beginning of the experiment the substance to be tested as an aldosterone-antagonist is administered to the animals by means of a stomach probe. 30 minutes later the animals receive a subcutaneous injection of 4 mmg/kg of aldosterone. After a further 90 minutes, the urinary bladders of the animals are emptied by careful suprapubic pressure, whereupon the animals are placed individually in metabolic cages without food and without drink. The urine of the animals is then collected for 3 hours, whereupon their urinary bladders are once more emptied. The spontaneously excreted urine and the remaining urine obtained at the conclusion of the experiment by pressing-out the urinary bladders are collected in graduated centrifuge glasses. Sodium and potassium concentrations in the urine are determined with a flame photometer.
(§1) The following Table contains results obtained in the previously described experiment with representative compounds of formula I. In this Table there are given for each compound in question the dosage administered (in mg/kg p.o.) as well as the percentage variation in the urine volume), the sodium excretion and the potassium excretion in comparison with the control animals (i.e. in comparison with the animals treated only with aldosterone). Moreover, the Table contains data relating to the acute toxicity of the compounds investigated (LD 50 in mg/kg in the case of a single oral administration to mice).

The nature of data set [2]: acute toxicity, single oral administration to mice. The conditions noted are these: mouse, in vivo.
Source text: as §1

The mark [3] stands for this setting: in comparison to untreated animals.

With `C[C@]12CCC(=O)C=C1CC[C@@H]1[C@@H]2[C@@H](O)C[C@]2(C=O)[C@@H](C(=O)CO)CC[C@@H]12` [aldosterone, reference compound], in data set [1] (setting [3]), the “excreted urine volume after aldosterone alone” value is “reduction of the excreted urine volume”, the “potassium excretion after aldosterone alone” value is given as “increased potassium excretion” and the “sodium excretion after aldosterone alone” value is recorded as “pronounced reduction of the sodium excretion”.

For orientation: LD50 means the dose at which mortality reaches 50%. Take `CN(C)C(=O)Nc1c(Cl)cc2c(c1Cl)C(c1ccccc1F)=NCC(=O)N2C` [Example 4, 3-[6,8-dichloro-5-(o-fluorophenyl)-2,3-dihydro-1-methyl-2-oxo-1H-1,4-benzodiazepin-7-yl]-1,1-dimethylurea]: in data set [1], the “(K+) potassium excretion in %, based on control animals” value (from here on “(K+) potassium excretion in %, based”) was found to be 160%; the “(Na+) sodium excretion in %, based on control animals” value (shortened to “(Na+) sodium excretion in %, based”) was found to be 330%; the “Volume (urine volume) in %, based on control animals” value (from here on “Volume (urine volume) in %, based”) is 152%. This compound gave an LD50 in data set [2] of 2500 mg/kg.

As for `CN1C(=O)CN=C(c2ccccc2F)c2c1cc(Cl)c(NC(=O)N1CCN(CCO)CC1)c2Cl` [Example 5, N-[6,8-dichloro-5-(o-fluorophenyl)-2,3-dihydro-1-methyl-2-oxo-1H-1,4-benzodiazepin-7-yl]-4-(2-hydroxyethyl)-1-piperazinecarboxamide], in data set [1], the “(K+) potassium excretion in %, based” value was 120%; the “(Na+) sodium excretion in %, based” value is given as 300%; the “Volume (urine volume) in %, based” value turned out to be 173%. This compound returned an LD50 in data set [2] greater than 5000 mg/kg.

For the compound `CN1C(=O)CN=C(c2ccccc2F)c2c1cc(Cl)c(NC(=O)NCCN1CCOCC1)c2Cl` [Example 6, 1-[6,8-dichloro-5-(o-fluorophenyl)-2,3-dihydro-1-methyl-2-oxo-1H-1,4-benzodiazepin-7-yl]-3-(2-morpholinoethyl)urea], in data set [1], the “(K+) potassium excretion in %, based” value was 91%; the “(Na+) sodium excretion in %, based” value came to 254%; the “Volume (urine volume) in %, based” value amounted to 183%. The 50% lethal dose (LD50) in data set [2] worked out at 5000 mg/kg.
